Values quoted from earlier work, collected in patent US20250000936A1, “TREATMENT OF GEOGRAPHIC ATROPHY” (Apellis Pharmaceuticals, Inc., priority 2021, published 2025).

Tested on: complement activation
Settings: complement inhibiting activity relative to C-terminally amidated compstatin; cited from earlier work

Substance	Activity over compstatin [xmore]
Ac-ICV(1-Nal)QDWGAHRCT-COOH (N-acetyl, 1-Nal) [Ac V4(1-Nal)/H9A-OH]	30
Ac-ICV(2-Nal)QDWGAHRCT-CONH2 (N-acetyl, C-amide, 2-Nal) [Ac-V4(2-Nal)/H9A]	99
Ac-ICVWQDWGAHRCdT-COOH [Ac-V4W/H9A/T13dT-OH]	55
Ac-ICVWQDWGAHRCT-CONH2 (Ac-ICVWQDWGAHRCT-NH2; cysteine pairing not given here) [Ac-V4W/H9A]	45
H-GICV(6fW)QD(6fW)GAHRCTN-COOH (6-fluoro-Trp residues) [+G/V4(6fW)/W7(6fW)H9A+N-OH]	126
Ac-ICV(Bpa)QDWGAHRCT-CONH2 (N-acetyl, C-amide, Bpa) [Ac-V4(Bpa)/H9A]	86
Ac-ICVYQDWGAHRCT-CONH2 [Ac-V4Y/H9A]	14
Ac-ICVVQDWGHHRCT-CONH2 [Ac-compstatin]	3
Ac-ICV(2-Nal)QDWGAHRCT-COOH (N-acetyl, 2-Nal) [Ac V4(2-Nal)/H9A-OH]	38
Ac-ICV(Bpa)QDWGAHRCT-COOH (N-acetyl, Bpa) [Ac-V4(Bpa)/H9A-OH]	49
Ac-ICV(2-Igl)QDWGAHRCT-COOH (N-acetyl, 2-Igl) [Ac-V42Igl/H9A-OH]	37
Ac-ICV(2-Igl)QDWGAHRCT-CONH2 (N-acetyl, C-amide, 2-Igl) [Ac-V42Igl/H9A]	39
Ac-ICVWQD(5fW)GAHRCT-CONH2 [Ac-V4W/W7(5fW)/H9A]	121
Ac-ICVDhtQDWGAHRCT-COOH [Ac-V4Dht/H9A-OH]	5
